The conditions of series [1]: other experimental patterns; cited from earlier work.
Series [2] can be described thus: Absorption by rectal route.
A short description of the next series: Solubility. The format is physicochemical. The settings on record: aqueous compositions.
The next series can be described thus: clinical. The arrangement: species or system patients. As to conditions: human, in vivo, po. The source says: The pharmaceutical composition as per Example 1 above has been orally administered to parkinsonian patients manifesting the on-off phenomenon, in order to evaluate the bioavailability and the clinical effect of LDME in this formulation in comparison with levodopa.
(§1) As previously illustrated, patients manifesting the on-off phenomenon alternate between periods when parkinsonian signs are relatively severe and intervals when parkinsonism is largely, if not completely, replaced by unvoluntary movements.
The absorption of LDME was infact very rapid, reaching the maximum concentration peak at 40-45 minutes from the administration.
Levodopa plasmatic levels after single oral administration
of corresponding doses of active principle (mg 200) re-
spectively of LDME and levodopa in two patients.

Series [3] has as its system parkinsonian patients manifesting the on-off phenomenon. Put plainly: Clinical effect of oral LDME (Example 1 composition) vs levodopa in parkinsonian patients manifesting the on-off phenomenon. The format is in vivo.
Source text: as §1

For the next series, the system named is reserpine-treated cats. The settings on record: cited from earlier work.
Another series concerns Parkinson's disease. As to conditions: cited from earlier work.
For series [4] the following is noted: cited from earlier work.
The conditions of series [5]: in vivo.

Read-outs that look alike come from different tables or passages of the source.

Take `COC(=O)[C@@H](N)Cc1ccc(O)c(O)c1` [LDME, levodopa methyl ester]: the “activity compared with the starting compound (levodopa)” value in [1] is recorded as “as active as the starting compound”. Moreover, the “rectal absorption / plasma levels by rectal administration” value in series [2] is listed as “detectable plasma levels sufficient to assure a therapeutic effect”. Further, the solubility result in “Solubility” was “high solubility”. Besides, in “clinical”, the absorption entry is “very rapid” and the “time of maximum concentration peak from the administration” value fell in the range of 40 to 45 min. The Levodopa plasmatic levels in the series “clinical” (0 min) was found to be 0 µg/mL. The Levodopa plasmatic levels in the series “clinical” (330 min) was 0.20 µg/mL. In addition, in series [3] (composition of Example 1), the “duration of action ("on" period duration) in respect to levodopa” value was “superior” and the “onset of the therapeutic effect” value is 20 to 30 min. For the same compound, the “dyskinesias at the moment of the appearance of the mobility ("on" phase)” value in [3] (composition of Example 1, subjects presenting "long-term syndrome", preliminary trials) is reported as “does not seem to induce dyskinesias”. Further, the “effects compared with levodopa (brain catecholamine levels, conditioned avoidance response)” value with reserpine-treated cats is “causes the same effects as levodopa”.

Turning to `CC(C)C[C@H]1C(=O)N2CCC[C@H]2[C@]2(O)O[C@](NC(=O)[C@@H]3C=C4c5cccc6[nH]c(Br)c(c56)C[C@H]4N(C)C3)(C(C)C)C(=O)N12` [bromocriptine], the “prevention or reduction of response fluctuations” value in the series on Parkinson's disease (alternative therapies with dopaminergic drugs) is on record as “do not give actual advantages in prevention or reduction of response fluctuations”.

As to `N[C@@H](Cc1ccc(O)c(O)c1)C(=O)O` [levodopa, (-)-3-(3,4-dihydroxyphenyl)-L-alanine], the solubility entry in [4] was “slightly soluble”. In the series on Parkinson's disease (chronic treatment per os), the “duration of efficacy ("end-of-dose deterioration")” value is 3 to 4 h and the unwanted effects result is recorded as “abnormal unvoluntary movements”. Also, in the series with Parkinson's disease (constant intravenous infusion), the clinical response entry is “a stable clinical response can be maintained for hours”. For the same compound, in series [5], the “rectal absorption / plasma levels by rectal administration” value is “not absorbed by rectal mucosa”. The compound further showed a Levodopa plasmatic levels in “clinical” (0 min) of 0 µg/mL. This compound showed a Levodopa plasmatic levels in the series “clinical” (0.25 h) of 0.35 µg/mL. This compound gave a Levodopa plasmatic levels in the series “clinical” (0.5 h) of 0.66 µg/mL. In the series “clinical” (0.75 h), this compound displayed a Levodopa plasmatic levels of 0.88 µg/mL. In the series “clinical” (1 h), this compound gave a Levodopa plasmatic levels of 1.15 µg/mL. Further, the Levodopa plasmatic levels in “clinical” (80 min) amounted to 1.67 µg/mL. The same compound displayed a Levodopa plasmatic levels in the series “clinical” (100 min) of 1.39 µg/mL. Further, in the series “clinical” (2 h), the Levodopa plasmatic levels turned out to be 1.35 µg/mL. For the same compound, in the series “clinical” (140 min), the Levodopa plasmatic levels was 1.05 µg/mL. In “clinical” (160 min), this compound gave a Levodopa plasmatic levels of 0.82 µg/mL. This compound also had a Levodopa plasmatic levels in the series “clinical” (3 h) of 0.80 µg/mL. The same compound came in with a Levodopa plasmatic levels in the series “clinical” (3.5 h) of 0.58 µg/mL. In addition, in “clinical” (4 h), the Levodopa plasmatic levels is 0.45 µg/mL. The compound further registered a Levodopa plasmatic levels in the series “clinical” (4.5 h) of 0.38 µg/mL. This compound registered a Levodopa plasmatic levels in the series “clinical” (5 h) of 0.17 µg/mL. In “clinical” (Levodopa plasmatic levels), this compound displayed a concentration at 0.25 h of 310 ng/mL, a concentration at 0.5 h of 1050 ng/mL, a concentration at 0.75 h of 1410 ng/mL and a concentration at 1 h of 1130 ng/mL. In the series “clinical” (Levodopa plasmatic levels), this compound registered a concentration at 80 min of 1470 ng/mL, a concentration at 100 min of 1170 ng/mL, a concentration at 2 h of 930 ng/mL and a concentration at 140 min of 1030 ng/mL. Further, in “clinical” (Levodopa plasmatic levels), the concentration at 160 min was 820 ng/mL, the concentration at 3 h turned out to be 650 ng/mL, the concentration at 3.5 h came to 700 ng/mL and the concentration at 4 h was 490 ng/mL. In “clinical” (Levodopa plasmatic levels), this compound showed a concentration at 4.5 h of 350 ng/mL, a concentration at 5 h of 280 ng/mL and a concentration at 5.5 h of 420 ng/mL.

Source of the values: patent publication US4826875A, “Pharmaceutical compositions containing levodopa methyl ester, preparation and therapeutic applications thereof” (priority 1986, dated 1989).
